Reference: patent US12239661B2, “Methods and compositions for treating undesired implanted tissue filler” (priority 2019, dated 2025)

Assays:
[1] = Electron microscopy (SEM) of filler particles isolated from test sites (Example 1); conditions: for particle degradation (change in particle size or surfaces) by EM / 25-45 μm / <25 μm / >45 μm / D-ratio: day 7; for Mean diameter: filler particles by EM, seven days after filler injection; for 25-45 μm / <25 μm / >45 μm: particle size distribution by EM; for D-ratio: shape index, 1=round, EM
Experimental: EM analysis is used, for example, to analyze morphology and the particle size distribution of Calcium Hydroxyapatite (CaHA) particles in tissue integrated particles. […] The biopsy material underwent an enzymatic digestion with protease (Trypsin without EDTA, for […], at 37° C.) after fixation in 10% neutral buffered formalin (NBF). Digested sample was centrifuged, and microscopy samples of the supernatant as well as the pellet were prepared and subjected to EM analysis at room temperature.
Samples were analyzed using a Scanning Electron Microscope (SEM) (Phenom Pure G3, ThermoFisher, with Phenom Pro Suite application system, ImageJ (version 1.51j8) software and OriginPro 2018G (64-bit) SR1 b9.5.1.195 software for analysis and data processing). To evaluate the changes in CaHA microparticle characteristics the samples were analyzed with the Scanning Electron Microscopy (SEM) and evaluated for morphology as well as for the size and shape of the material. Statistical analysis of particle size distribution (PSD) would show changes of the material.
SEM images were taken from three fractions per sample to determine the particle- and volume-weighted size distributions. Up to 400 SEM images per fraction were taken at a magnification of ×500 and further processed by automated image analyzing software ImageJ (version 1.51j8). Image processing took place for every fraction image to determine selected parameters. e.g., Feret diameter and aspect ratio (D-ratio).

[2] = Semi-quantitative histopathologic analysis of injection sites (Example 1); conditions: for AM Degradation / Cell or Tissue Degeneration / Encapsulation / Fatty Infiltrate / Fibrin / Fibroblasts / Fibrosis / Giant Cells / Hemorrhage / Lymphocytes / Macrophages / Necrosis / Neovascularization / Plasma Cells / Polymorphonuclear Cells / Tissue Ingrowth / Tissue Integration: mean score, day 7
Experimental: After complete fixation in 10% NBF and micro-CT analysis, the 30 test sites and the TO site, were cut into five blocks. The blocks were decalcified for 48 hours with formic acid and then dehydrated in alcohol solutions of increasing concentration, cleared in xylene and embedded in paraffin. […] Finally, the blocks were placed in HCl for 15 min and the blocks could then be cut to obtain slides for analysis.
The section was stained with safranin-hematoxylin-cosin (SHE). The same procedure was used for the preparation of the TO site used for structural characterization and evaluation of the degradation.
Qualitative and semi-quantitative histopathologic evaluation of the local tissue effects and the inflammatory response at injection sites was conducted according using standard methods.
Evaluation of local tissue effects was based on the qualitative and semi-quantitative histopathologic evaluation: mean score comparison of the semi-quantitative parameters and comparison of the qualitative histopathologic findings.

[3] = Quantitative histomorphometric analysis of injection sites (Example 1); format: in vivo, Swine (Sus scrofa domesticus); conditions: injected area, day 7, mean
Experimental: Histomorphometric analysis was conducted on the 31 sections. Each section was analyzed with a color image analyzing system (Tribvn, France, CALOPIX version 3.2.0) to perform a semi-automatic analysis.
A Test Area was defined in a limited area where the print of the granules of the associated material was clear. This area was defined to evaluate the average area and diameter of each microsphere. A Test Area had to contain between 100 and 300 clearly defined granules to be considered as representative. FIG. 2 illustrates a Test Area in a section.
The injected area was the entire area where material was detected on the slide. The Test Area was part of the injected area.
Quantitative measurements were performed either in the Test Area or in the entire injected area. […]
Implant Area (μm^2) (Test Area): the surface area of granules measured in the Test Area (including any Lacunae Area).
Implant Area (mm^2) (Injected Area): the surface of granules was measured in the entire injected area (including any Lacunae Area). […]
Lacunae Area (mm^2) (Injected Area): the surface of the “Lacunae” Area was measured as defined by the optically empty spaces corresponding to merged granules (no distinct limits between several granules).

[4] = In vivo CT of filler nodule volume, density and 3D shape after test solutions 0-8 (Example 3)
Experimental: One hour after filler injections (T=1 h), 1.5 mL of selected solutions (Table 5, solutions 0-8, test items, solution 0 is normal saline and not hyperosmotic) were injected each into 9 dermal filler nodules in the right flank (ventral area).
A total of 7 CT-scans were performed at 1 h 15, 2 h, 4 h, 1 day (24 h), 3, 7 and 14 days after injection of the dermal filler. The clinical state of each animal is assessed once a week by body weight measurement and clinical observations.
The 10 SC injections of dermal filler on Day 0 were performed in the ventral area, (five nodules on each flank of the ventral area) for each pig. For each SC nodule, a theoretical volume of 500 μl was administered. One hour (±5 min) after injection of dermal filler, SC injection of the different solutions (prepared the day before) were performed into nine (9) nodules of dermal. For each SC nodule, a theoretical volume of 1.5 mL of test solution was administered.
The X-ray computed tomography acquisitions were performed with the Computed Tomography Scanner BrightSpeed 16 (General Electric). In order to measure the volume and the mean density and to visualize the 3D shape of the dermal filler (Radiesse® filler with or without test solution) injected, in vivo CT-scans were performed on Day 0: 1 h 15 (±10 min), 2 h (±15 min) and 4 h (±20 min), on Day 1 (24 h+1 h), Day 3, Day 7 and Day 14.
During CT acquisition on Day 0, the pigs received an IM injection of anesthesia. The animals were maintained under anesthesia until the CT acquisition at T=2 h (2 h after dermal filler injection session). Between these CT acquisitions, the animals were under surveillance in the recovery room on a heating mat with fluidotherapy. At the end of the CT acquisition at T=2 h, the pigs received a tattoo around each injected site. During the CT acquisitions at T=4 h and on Days 1, 3, 7 and 14, pigs received an IM injection of anesthesia. For the CT-scans, animals were positioned in dorsal recumbency and acquisitions were centered on the injection sites. The parameters of the CT-scan are described in Table 5.
The CT acquisition was analyzed with the software Avizo version 9.2.0. The objective of this analysis was to assess the degradation over time of the dermal filler injected by SC route after injection of different test solutions.
An image segmentation processing was performed on each CT acquisition. First, a manual pre-segmentation was performed around each nodule in order to roughly isolate the voxels corresponding to dermal filler product, which defined a Region of Interest (ROI). Second, an automatic segmentation was applied on the previously defined ROI using a global grey level thresholding procedure.
On day 0, a farm pig received ten (10) SC injections of Radiesse® dermal filler 0.5 mL (ventral area) (10 nodules in total). One hour after filler injections (T=1 h), 1.5 mL of one of eight test hyperosmotic solutions (1-8 solutions, Table 5) was injected at an injection site. One injection site was untreated and one injection site was treated with normal saline (0.9% wt/v NaCl).

[5] = Experimental: A total of 10 CT-scans were performed at 30 min, 1 h 15 min, 1 h 30 min, 1 h 45 min, 2 h, 3 h, 4 h, 8 h, 1 day (24 h) and 7 days after injections of the dermal filler.
The X-ray computed tomography (CT) acquisitions were performed with the Computed Tomography Scanner BrightSpeed 16 (General Electric). In order to measure the volume, the mean density and visualize the 3D (Three-dimensional) shape of the dermal fillers SC injected, in vivo CT-scans were performed 1 h 15 (±5 min), 1 h 30 (±10 min), 1 h 45 (±10 min), 2 h (±10 min), 3 h (±15 min), 4 h (±15 min), 8 h (±30 min), 24 h (Day 1+1 h) and 7 days after the test item injections.
For each CT-scan, the animal was positioned in dorsal recumbency (ventral images) and acquisitions were centered on the injection sites. The parameters of the CT-scan are described in Table 4.
The CT acquisitions were analyzed with Avizo version 9.2.0 software. […] To achieve this goal, the evolution of the following parameters was observed over time: • the volume of each nodule, • the mean density of each nodule, and • the 3D shape of each nodule by visualization on the 3D model of each nodule at each time point. Segmentation
An image segmentation was performed on each CT acquisition using standard reconstruction. First, a manual pre-segmentation was performed around each nodule in order to roughly isolate the voxels corresponding to dermal filler. An interpolation procedure was performed to obtain a contour for each slice and define a Region of Interest (ROI). Second, an automatic segmentation was applied on the ROI previously defined using a global grey level thresholding procedure. The relevant threshold allowing the isolation of the dermal filler products was defined on the basis of the Hounsfield Unit (HU) histogram, following the Otsu method to accurately define the ROI. […] Then, a 3D model of these selected voxels was obtained allowing calculation of the total volume (in mm^3) of each nodule of non-degraded dermal filler.
The volume (in mm^3) of the ROI corresponding to each nodule of dermal filler and the mean density (in HU) of each nodule were calculated at each time point.
In order to assess the evolution over time of the elimination of SC-injected dermal filler, the mean volume±standard deviation (SD) and the average of mean density±SD were calculated for each dermal filler injection of the right and left flank separately at each different time points. The evolution of the mean volumes, the mean volume variations and the average of the mean densities of each dermal filler were calculated.

[6] = day 7 after injection; 1.5 mL into 0.5 mL filler site; vs untreated filler
[7] = Example 3, mean, listed as Normal Saline (sol 0)

Row | Structure (SMILES) | particle degradation (change in particle size or surfaces) by EM [1] | Mean diameter [1] [μm] | 25-45 μm [1] [wt %] | <25 μm [1] [wt %] | >45 μm [1] [wt %] | D-ratio [1] | AM Degradation [2] | Cell or Tissue Degeneration [2] | Encapsulation [2] | Fatty Infiltrate [2] | Fibrin [2] | Fibroblasts [2] | Fibrosis [2] | Giant Cells [2] | Hemorrhage [2] | Lymphocytes [2] | Macrophages [2] | Necrosis [2] | Neovascularization [2] | Plasma Cells [2] | also measured
1 | [Cl-].[Na+] [sol 0, Sodium chloride] | no indication of particle degradation | 28.8 | 93.2 | 1.4 | 5.4 | 0.8 | 1.0 | 0.0 | 0.0 | 0.0 | 1.7 | 2.0 | 0.0 | 2.0 | 1.1 | 1.3 | 2.4 | 0.1 | 1.0 | 0.0 | Polymorphonuclear Cells [2]: 1.0; Tissue Ingrowth [2]: 2.5; Tissue Integration [2]: 2.5; Implant area [3]: 19.2 mm^2; Change in Volume as percent of Injected Volume, Day 14/15 ([4]; Example 3 (Day 14), mean, listed as Normal Saline (sol 0)): 187.72%; Change in Volume as percent of Injected Volume, Day 0 + 1 h 15 ([4]; Example 3, mean, 1.5 mL solution into 500 μl nodule, listed as Normal Saline (sol 0)): 155.02%; Change in Volume as percent of Injected Volume, Day 0 + 2 h [4, 7]: 159.42%; Change in Volume as percent of Injected Volume, Day 0 + 4 h [4, 7]: 182.97%; Change in Volume as percent of Injected Volume, Day 1 [4, 7]: 209.66%; Change in Volume as percent of Injected Volume, Day 3 [4, 7]: 215.48%; Change in Volume as percent of Injected Volume, Day 7 [4, 7]: 212.85%; effect on volume at the filler injection site ([4]; after 7 and 14 days, vs untreated, listed as normal saline): does not produce significant decreased volume
2 | O=S([O-])([O-])=S.[Na+].[Na+] [STS, sodium thiosulfate] | no indication of particle degradation | 29.2 | 93.1 | 1.7 | 5.2 | 0.8 | 1.8 | 0.0 | 0.0 | 0.0 | 2.4 | 2.0 | 0.0 | 1.4 | 2.1 | 1.1 | 2.0 | 1.2 | 1.0 | 0.0 | appearance of filler in histology slices ([2]; SHE stain, vs Saline treatment or untreated filler): more dispersed (diluted) appearance of filler; Polymorphonuclear Cells [2]: 1.1; Tissue Ingrowth [2]: 2.5; Tissue Integration [2]: 2.5; fibrin content, hemorrhage and necrosis by histopathology ([2]; seven days): increased fibrin content, hemorrhage and necrosis; inflammation by histopathology ([2]; seven days): decreased inflammation (macrophages, giant cells); amount of filler by histopathology ([2]; seven days, vs Saline treatment and untreated injections): decreased amount of filler; Radiesse+STS high volume (HU 250-infinity) vs untreated filler by CT ([5]; 90 minutes after injection): very modest temporary increase; Radiesse+STS high density vs untreated filler by CT ([5]; day 7): strong trend for a decrease; filler volume×density/1000 (filler content) in Radiesse+STS high fraction ([5]; day 7): significant decrease of filler; highest HU values of voxel frequency trace ([5]; day 7, untreated filler 450-570 HU): 250-400 HU; number of voxels at 750 HU ([5]; day 7, untreated filler c.a. 70): ~40 voxels; Radiesse-STS (low) volume (0 to 250 HU) by CT ([5]; diluted/dispersed fraction over time): increases with the time between 120 and 240 minutes; effect on dermal filler volume as measured by micro-CT [6]: ≤ 10%
